# Experimental data as given in patent US20230061417A1, “THIENOPYRIMIDINE DERIVATIVES AS LPA RECEPTOR 2 INHIBITORS” (CHIESI FARMACEUTICI S.P.A., priority 2019, published 2023).
# Target: T1, human recombinant LPA2 (Homo sapiens, UniProt Q9HBW0)
# T1 construct: expressed in transfected cells; host or cells: CHO (CHO-hLPA2 cell line)
# Test: FLIPR calcium mobilization assay, LPA2 antagonism in CHO-hLPA2 cells
# Assay type: cell-based
# Settings: human recombinant LPA2 in CHO cells, LPA EC80 stimulation, 30 min pre-incubation; read-out: LPA2 IC50
# Procedure: The effectiveness of compounds of the present invention as LPA2 antagonist can be determined at the human recombinant LPA2 expressed in CHO cells, using a FLIPR assay in 384 well format.
# CHO-hLPA2 cell lines are cultured in a humidified incubator at 5% CO2 in DMEM/F-12 (1:1) MIXTURE with 2 mM Glutamax, supplemented with 10% of Foetal Bovine Serum, 1 mM Sodium Pyruvate, 11 mM Hepes and 1× Penicillin/Streptomycin. CHO hLPA2 cells are seeded into black walled clear-bottom 384-well plates (#781091, Greiner Bio-One GmbH) at a density of 7,500 cells per well in 50 μl culture media and grown overnight in a 37° C. humidified CO2-incubator. Serial dilutions (1:3 or 1:4, 11 points CRC) of compounds are performed in 100% DMSO at 200× the final concentration. The compounds are diluted 1:50 prior to the experiment with Assay Buffer (20 mM HEPES, 145 mM NaCl, 5 mM KCl, 5.5 mM glucose, 1 mM MgCl2 and 2 mM CaCl2, pH 7.4 containing 0.01% Pluronic F-127) to obtain a solution corresponding to […] the final concentration in the assay (4×, 2% DMSO). The final concentration of DMSO in the assay will be 0.5% in each well. Medium is removed by aspiration and cells are then incubated with 30 μl of a loading solution containing 5 μM of the cytoplasmic Ca2+ indicator Cal-520 AM in Assay Buffer containing 2.5 mM probenecid for 30 min at 37° C. incubator (cell loading). The loaded cell plates are transferred into the FLIPR instrument and calcium responses are monitored during the on-line addition protocols. For testing of compounds, after the cell loading, 10 μl/well of 4× antagonists' solution was added onto the cells. After 30 min pre-incubation (at 37° C.), 10 μl/well of 5× concentrated LPA EC80 was added and Ca2+ mobilization responses was followed during the on-line addition protocol. Intracellular peak fluorescence values subtracted by baseline fluorescence are exported and analysed to determine IC50 values, respectively. The calcium response is expressed as percentage of the maximal inhibition of the EC80 agonist response.
# The raw data (peak height expressed as relative fluorescence units) are normalized and transformed into “percent of inhibition”. Curve fitting and pIC50 (−Log IC50) estimations are carried out using a four-parameter logistic model using XLfit Software.
# T1 sequence (Q9HBW0 whole entry): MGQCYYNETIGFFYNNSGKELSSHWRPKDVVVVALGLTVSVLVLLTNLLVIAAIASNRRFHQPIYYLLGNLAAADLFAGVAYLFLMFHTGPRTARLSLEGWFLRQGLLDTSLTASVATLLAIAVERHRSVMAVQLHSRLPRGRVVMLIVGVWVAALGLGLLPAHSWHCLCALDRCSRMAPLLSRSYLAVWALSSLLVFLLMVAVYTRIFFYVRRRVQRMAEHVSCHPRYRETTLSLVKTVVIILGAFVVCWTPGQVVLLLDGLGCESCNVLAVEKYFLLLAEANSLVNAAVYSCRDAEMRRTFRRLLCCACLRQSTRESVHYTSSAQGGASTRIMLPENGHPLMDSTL
row,IC50,Structure (SMILES)
1,< 1 µM,"COC(=O)c1cc(Br)c(S(=O)(=O)N2CCN(C[C@H](C)Nc3ncnc4c(C)csc34)CC2)s1 [Example 13, methyl 4-bromo-5-({4-[(2S)-2-({7-methylthieno[3,2-d]pyrimidin-4-yl}amino)propyl]piperazin-1-yl}sulfonyl)thiophene-2-carboxylate]"
2,< 1 µM,"Cc1csc2c(N[C@@H](C)CN3CCN(S(=O)(=O)c4ccc(Br)c(Cl)c4)CC3)ncnc12 [Example 11, N-[(2S)-1-[4-(4-bromo-3-chlorobenzenesulfonyl)piperazin-1-yl]propan-2-yl]-7-methylthieno[3,2-d]pyrimidin-4-amine]"
3,< 1 µM,"CC(=O)Nc1cc(F)c(S(=O)(=O)N2CCN(C[C@H](C)Nc3ncnc4c(C)csc34)CC2)cc1Cl [Example 18, N-[2-chloro-5-fluoro-4-({4-[(2S)-2-({7-methylthieno[3,2-d]pyrimidin-4-yl}amino)propyl]piperazin-1-yl}sulfonyl)phenyl]acetamide]"
4,< 1 µM,"Cc1nc(NC(=O)C2CN(C(=O)OC(C)(C)C)C2)sc1S(=O)(=O)N1CCN(C[C@H](C)Nc2ncnc3c(C)csc23)CC1 [Example 33, tert-butyl 3-{[4-methyl-5-({4-[(2S)-2-({7-methylthieno[3,2-d]pyrimidin-4-yl}amino)propyl]piperazin-1-yl}sulfonyl)-1,3-thiazol-2-yl]carbamoyl}azetidine-1-carboxylate]"
5,< 1 µM,"Cc1nc2ccc(S(=O)(=O)N3CCN(C[C@H](C)Nc4ncnc5c(C)csc45)CC3)cc2s1 [Example 23, 7-methyl-N-[(2S)-1-{4-[(2-methyl-1,3-benzothiazol-6-yl)sulfonyl]piperazin-1-yl}propan-2-yl]thieno[3,2-d]pyrimidin-4-amine]"
6,< 1 µM,"Cc1csc2c(N[C@@H](C)CN3CCN(S(=O)(=O)c4cccc(Br)c4)CC3)ncnc12 [Example 7, N-[(2S)-1-[4-(3-bromobenzenesulfonyl)piperazin-1-yl]propan-2-yl]-7-methylthieno[3,2-d]pyrimidin-4-amine]"
7,< 1 µM,"Cc1csc2c(N[C@@H](C)CN3CCN(S(=O)(=O)c4ccc(F)c(Cl)c4)CC3)ncnc12 [Example 9, N-[(2S)-1-[4-(3-chloro-4-fluorobenzenesulfonyl)piperazin-1-yl]propan-2-yl]-7-methylthieno[3,2-d]pyrimidin-4-amine]"
8,< 1 µM,"COC(=O)c1ccc(S(=O)(=O)N2CCN(C[C@H](C)Nc3ncnc4c(C)csc34)CC2)s1 [Example 4, Methyl 5-({4-[(2S)-2-({7-methylthieno[3,2-d]pyrimidin-4-yl}amino)propyl]piperazin-1-yl}sulfonyl)thiophene-2-carboxylate]"
9,< 1 µM,"COC(=O)Nc1nc(C)c(S(=O)(=O)N2CCN(C[C@H](C)Nc3nc(Cl)nc4c(C(F)(F)F)csc34)CC2)s1 [Example 32, methyl N-[5-({4-[(2S)-2-{[2-chloro-7-(trifluoromethyl)thieno[3,2-d]pyrimidin-4-yl]amino}propyl]piperazin-1-yl}sulfonyl)-4-methyl-1,3-thiazol-2-yl]carbamate]"
10,< 1 µM,"COC(=O)Nc1nc(C)c(S(=O)(=O)N2CCN(C[C@H](C)Nc3ncnc4c(C)csc34)CC2)s1 [Example 20, methyl N-[4-methyl-5-({4-[(2S)-2-({7-methylthieno[3,2-d]pyrimidin-4-yl}amino)propyl]piperazin-1-yl}sulfonyl)-1,3-thiazol-2-yl]carbamate]"
11,< 1 µM,"Cc1nc(-c2ccc(S(=O)(=O)N3CCN(C[C@H](C)Nc4ncnc5c(C)csc45)CC3)cc2)cs1 [Example 5, 7-methyl-N-[(2S)-1-{4-[4-(2-methyl-1,3-thiazol-4-yl)benzenesulfonyl]piperazin-1-yl}propan-2-yl]thieno[3,2-d]pyrimidin-4-amine]"
12,< 1 µM,"Cc1csc(-c2ccc(S(=O)(=O)N3CCN(C[C@H](C)Nc4ncnc5c(C)csc45)CC3)cc2)n1 [Example 17, 7-methyl-N-[(2S)-1-{4-[4-(4-methyl-1,3-thiazol-2-yl)benzenesulfonyl]piperazin-1-yl}propan-2-yl]thieno[3,2-d]pyrimidin-4-amine]"
